This note sets out measurements from paper PMC8605023 (Nature Communications, 2021).

Ends that are not written are not given here. Peptide text beside a SMILES is read from it. * marks the point of attachment. FITC = O=C1OC2(c3ccc(O)cc3Oc3cc(O)ccc32)c2ccc(NC(=S)*)cc21

The target in experiment [1] is T1, AP2M1 (Homo sapiens, UniProt Q96CW1).
T1 construct: His-GST (cleaved yes); made in house; host or cells: E. coli BL21-Gold(DE3)
T1 sequence (Q96CW1 160-435 limits assumed): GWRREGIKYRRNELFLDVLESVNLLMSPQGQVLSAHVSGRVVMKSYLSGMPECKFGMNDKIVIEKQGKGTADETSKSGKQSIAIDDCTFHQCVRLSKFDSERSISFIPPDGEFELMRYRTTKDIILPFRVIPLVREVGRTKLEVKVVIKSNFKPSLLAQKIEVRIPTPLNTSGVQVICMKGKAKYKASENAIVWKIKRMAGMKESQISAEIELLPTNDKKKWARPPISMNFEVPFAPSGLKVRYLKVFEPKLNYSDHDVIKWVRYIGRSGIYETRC
Description: biochemical. Format: binding.

The target of experiment [2] is T1, AP2M1. Description: FP saturation (direct) binding of FITC-labeled probe peptide, AP2M1. Here is the method:
(§1) Proteins used for FP affinity measurements were expressed and purified in larger-scale bacterical cultures (at least 8 × 500 mL 2YT). His-GST-tagged G3BP1 and G3BP2 were used directly for affinity measurements after dialysis.
(§2) FP experiments were carried out using a SpectraMax iD5 multimode microplate reader (Molecular Devices) using a black half area 96-well plate (Corning, USA #3993) with a total volume of 50 μL. The settings used were 485 nm for excitation and 535 nm for emission.
(§3) Peptides were from GeneCust (France) with a purity of over 95%. FITC-labeled peptides were dissolved in dimethyl sulfoxide (DMSO). Unlabelled peptides were dissolved in phosphate buffer (50 mM phosphate buffer pH 7.5 and 1–2 mM reducing agent DTT or TCEP). All measurements were performed at least in triplicates. For saturation binding experiment, proteins were serially diluted in the plate with phosphate buffer in a volume 25 μL, and then supplemented with a master mix of 10 nM FITC-labeled peptide in phosphate buffer. […] Twenty-five mitroliter of this displacement master mix was added to unlabeled peptides, which were serially diluted in the plate in 25 μL phosphate buffer.
(§4) The data were analysed with GraphPad Prism version 9.0.0 for MacOS (GraphPad Software, San Diego, California USA, www.graphpad.com). […]

For experiment [3], the target named is FERM domain of Ezrin (EZR) (Homo sapiens, UniProt P15311). Description: biochemical. It is filed as binding.
FERM domain of Ezrin (EZR), sequence (P15311 2-296 limits assumed): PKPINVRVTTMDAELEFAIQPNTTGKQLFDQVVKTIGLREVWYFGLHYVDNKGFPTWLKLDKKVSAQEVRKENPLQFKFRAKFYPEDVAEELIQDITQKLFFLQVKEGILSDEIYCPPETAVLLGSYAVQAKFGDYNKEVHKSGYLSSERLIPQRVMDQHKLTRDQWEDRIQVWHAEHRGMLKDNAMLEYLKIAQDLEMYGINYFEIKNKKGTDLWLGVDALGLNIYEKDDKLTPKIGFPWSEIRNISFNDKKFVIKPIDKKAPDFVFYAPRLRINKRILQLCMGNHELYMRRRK
The target of experiment [4] is T2, USP7 (Homo sapiens, UniProt Q93009).
T2 construct: His-GST (cleaved yes); made in house; host or cells: E. coli BL21-Gold(DE3)
T2 sequence (Q93009 63-205 limits assumed): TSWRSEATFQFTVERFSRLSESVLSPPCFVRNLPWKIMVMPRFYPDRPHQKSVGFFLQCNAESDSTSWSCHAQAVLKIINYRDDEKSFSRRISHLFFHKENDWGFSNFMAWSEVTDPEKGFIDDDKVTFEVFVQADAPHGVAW
The experiment in a line: biochemical. Format: binding.

The target of experiment [5] is T3, MAP1LC3C (Homo sapiens, UniProt Q9BXW4).
T3 construct: His-GST (cleaved yes); made in house; host or cells: E. coli BL21-Gold(DE3)
T3 sequence (Q9BXW4 1-126 limits assumed): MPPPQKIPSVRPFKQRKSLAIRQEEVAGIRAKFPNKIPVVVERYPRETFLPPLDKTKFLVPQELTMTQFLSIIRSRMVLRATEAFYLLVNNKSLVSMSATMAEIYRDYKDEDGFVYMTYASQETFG
The experiment in a line: biochemical. It is filed as binding.

Experiment [6] has as its target T3, MAP1LC3C. The experiment in a line: FP saturation (direct) binding of FITC-labeled probe peptide, MAP1LC3C. Here is the method:
as §1, §2, §3, §4

The target of the next experiment is T4, NTF2 domain of G3BP1 (Homo sapiens, UniProt Q13283).
T4 construct: made in house; host or cells: E. coli BL21-Gold(DE3)
T4 sequence (Q13283 11-133 limits assumed): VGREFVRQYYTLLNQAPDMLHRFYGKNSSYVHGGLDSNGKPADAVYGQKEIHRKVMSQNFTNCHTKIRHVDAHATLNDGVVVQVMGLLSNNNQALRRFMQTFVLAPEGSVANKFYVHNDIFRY
Description: biochemical. Format: binding.

A further experiment concerns the target T5, NTF2 domain of G3BP2 (Homo sapiens, UniProt Q9UN86).
T5 construct: made in house; host or cells: E. coli BL21-Gold(DE3)
T5 sequence (Q9UN86 11-133 limits assumed): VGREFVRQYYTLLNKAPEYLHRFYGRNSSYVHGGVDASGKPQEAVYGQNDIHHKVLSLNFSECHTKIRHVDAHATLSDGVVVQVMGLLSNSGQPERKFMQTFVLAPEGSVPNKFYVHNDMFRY
The experiment in a line: biochemical. Format: binding.

For experiment [7], the target named is T2, USP7. The experiment in a line: FP saturation (direct) binding of FITC-labeled probe peptide, USP7. Particulars: Kd direct binding of 10 nM FITC probe, saturation with protein. Here is the method:
as §1, §2, §3, §4

Usually Kd stands for the concentration at which binding is half-saturated. High values mean a looser complex, low ones a tighter complex. As usually defined, the IC50 is the concentration at which inhibition is half-maximal. The term Ki denotes the equilibrium dissociation constant of an inhibitor or competing ligand from its target.

As for `CC[C@H](C)[C@H](NC(=O)[C@H](CC(=O)O)NC(=O)[C@H](CO)NC(=O)[C@@H](NC(=O)[C@@H](NC(=O)CNC(C)=O)C(C)C)C(C)C)C(=O)N[C@@H](CC(=O)O)C(=O)N[C@@H](Cc1ccc(O)cc1)C(=O)N[C@H](C(=O)N1CCC[C@H]1C(=O)N[C@@H](CC(C)C)C(=O)N[C@@H](CCCCN)C(=O)N[C@@H](CO)C(=O)N[C@@H](C)C(=O)N[C@H](C(N)=O)[C@@H](C)O)C(C)C`, binding on AP2M1 [1] was characterised by a dissociation constant (Kd) of 1.6 ± 0.2 µM.

At AP2M1 [2], `CC(C)C[C@H](NC(=O)[C@H](CCCNC(=N)N)NC(=O)[C@H](CCC(N)=O)NC(=O)[C@H](Cc1ccc(O)cc1)NC(=O)[C@H](CCC(=O)O)NC(=O)[C@@H](NC(=O)[C@H](CC(=O)O)NC(=O)[C@H](Cc1ccccc1)NC(=S)Nc1ccc2c(c1)C(=O)OC21c2ccc(O)cc2Oc2cc(O)ccc21)[C@@H](C)O)C(=O)N[C@@H](CCC(=O)O)C(=O)N[C@@H](C)C(=O)N[C@@H](CO)C(=O)O` [ATG9A 4-14 Human] (HELM PEPTIDE1{[O=C1OC2(c3ccc(O)cc3Oc3cc(O)ccc32)c2ccc(NC(=S)[*:2])cc21].F.D.T.E.Y.Q.R.L.E.A.S}$$$$V2.0) yielded a Kd of 1.1 ± 0.03 µM.

`CC[C@H](C)[C@H](NC(=O)[C@H](CC(C)C)NC(=O)[C@@H](NC(=O)CNC(=O)[C@@H](NC(=O)[C@H](CCC(=O)O)NC(=O)[C@H](CCC(=O)O)NC(=O)[C@H](CO)NC(=O)[C@@H](NC(=O)[C@H](Cc1ccccc1)NC(=O)[C@H](CO)NC(=O)[C@H](Cc1ccc(O)cc1)NC(=O)[C@@H](N)CCSC)C(C)C)[C@@H](C)O)[C@@H](C)O)C(=O)N[C@H](C(=O)N[C@@H](CC(N)=O)C(=O)N[C@@H](CO)C(=O)O)C(C)C` [E 1-16 Sars-CoV2/Sars-CoV] (H-MYSFVSEETGTLIVNS-OH) returned a Kd in experiment [3] of 57.9 ± 0.4 µM.

On AP2M1 [1], `CC[C@H](C)[C@H](NC(=O)[C@H](Cc1c[nH]cn1)NC(=O)[C@H](CCCCN)NC(=O)[C@H](CC(N)=O)NC(=O)[C@H](CC(C)C)NC(C)=O)C(=O)N[C@@H](CC(=O)O)C(=O)N[C@@H](C)C(=O)N[C@@H](Cc1ccc(O)cc1)C(=O)N[C@@H](CCCCN)C(=O)N[C@H](C(=O)N[C@@H](Cc1ccccc1)C(=O)N1CCC[C@H]1C(=O)N1CCC[C@H]1C(=O)N[C@H](C(=O)N[C@@H](CCC(=O)O)C(N)=O)[C@@H](C)O)[C@@H](C)O` [N 353-367 Sars-CoV2/Sars-CoV] returned an IC50 of 1530 µM and a Ki of 530 µM.

Take `CC(C)C[C@H](NC(=O)[C@@H](NC(=O)[C@H](CCC(=O)O)NC(=O)[C@H](Cc1ccccc1)NC(=O)[C@H](CO)NC(=O)[C@H](CC(N)=O)NC(=O)[C@H](CO)NC(=O)[C@@H](NC(=O)[C@H](CC(=O)O)NC(=O)[C@@H](N)C(C)C)[C@@H](C)O)C(C)C)C(=O)N[C@@H](C)C(=O)N[C@H](C(=O)N[C@@H](CCC(=O)O)C(=O)N[C@@H](CC(=O)O)C(=O)N[C@H](C(=O)N[C@@H](CCC(N)=O)C(=O)N[C@@H](Cc1ccc(O)cc1)C(=O)O)[C@@H](C)O)C(C)C` [NSP3 1996-2011 Sars-CoV]: on USP7 [4], the IC50 came out at 210 µM, the Kd came to 29 ± 2 µM and affinity was put at a Ki of 29 µM. Also, on MAP1LC3C [5], the IC50 was found to be 200 µM, the Kd was 28 ± 1 µM and the inhibition constant (Ki) is 28 µM.

In experiment [3], `CC(C)C[C@H](NC(=O)[C@@H](NC(=O)[C@H](CC(=O)O)NC(=O)[C@H](Cc1ccccc1)NC(=O)[C@H](CO)NC(=O)[C@H](CC(N)=O)NC(=O)[C@H](CO)NC(=O)[C@@H](NC(=O)[C@H](CCC(=O)O)NC(=O)[C@@H](N)C(C)C)[C@@H](C)O)C(C)C)C(=O)N[C@@H](CCCCN)C(=O)N[C@@H](CO)C(=O)N[C@@H](CCC(=O)O)C(=O)N[C@@H](CC(=O)O)C(=O)N[C@@H](C)C(=O)N[C@@H](CCC(N)=O)C(=O)N[C@@H](Cc1ccc(O)cc1)C(=O)O` [NSP3 2019-2034 Sars-CoV2] showed a Kd of 19.8 ± 0.4 µM. On USP7 [4], the IC50 was found to be 270 µM, the Kd was determined as 37 ± 0.2 µM and affinity was put at a Ki of 37 µM. Further, on MAP1LC3C [5], the IC50 came to 1530 µM, the Kd was determined as 210 ± 18 µM and the affinity corresponds to a Ki of 210 µM.

Take `CC[C@H](C)[C@H](NC(=O)[C@H](CCSC)NC(=O)[C@H](CO)NC(C)=O)C(=O)N[C@@H](CCC(=O)O)C(=O)N[C@@H](CC(=O)O)C(=O)N[C@H](C(=O)N[C@@H](CC(=O)O)C(=O)N[C@@H](Cc1ccc(O)cc1)C(=O)N[C@H](C(=O)N1CCC[C@H]1C(=O)N[C@@H](CC(C)C)C(=O)N[C@@H](CCCCN)C(=O)N[C@@H](CO)C(=O)N[C@@H](C)C(=O)N[C@H](C(N)=O)C(C)C)C(C)C)[C@@H](C)CC` [NSP14 6498-6512 Mers]: at AP2M1 [1], binding was characterised by a dissociation constant (Kd) of 3 ± 0.1 µM and affinity was put at a Ki of 3 µM.

Regarding `CC(C)C[C@H](NC(=O)[C@H](Cc1c[nH]cn1)NC(=O)[C@@H](NC(=O)[C@H](Cc1c[nH]c2ccccc12)NC(=O)[C@H](CC(=O)O)NC(=O)[C@H](CC(=O)O)NC(=O)[C@H](CC(=O)O)NC(=S)Nc1ccc2c(c1)C(=O)OC21c2ccc(O)cc2Oc2cc(O)ccc21)[C@@H](C)O)C(=O)N[C@@H](CO)C(=O)N[C@@H](CO)C(=O)N[C@@H](CCCCN)C(N)=O` [SQSTM1 335-344 Human], binding on MAP1LC3C [6] was put at a Kd of 1.1 ± 0.03 µM.

On NTF2 domain of G3BP1, `CC(=O)N1CCC[C@H]1C(=O)N[C@@H](CO)C(=O)N[C@@H](CCCCN)C(=O)N[C@@H](CC(C)C)C(=O)N1CCC[C@H]1C(=O)N[C@H](C(=O)N[C@@H](Cc1ccccc1)C(=O)NCC(=O)N[C@@H](C)C(=O)N1CCC[C@H]1C(=O)N[C@@H](CCC(=O)O)C(=O)N[C@@H](CCC(N)=O)C(=O)N[C@@H](CC(C)C)C(=O)N[C@H](C(=O)N[C@@H](CC(=O)O)C(=O)N[C@@H](Cc1ccc(O)cc1)C(N)=O)C(C)C)[C@@H](C)O` [TRIM25 400-414 Human] (Ac-PSKLPTFGAPEQLVDY-NH2) gave a Ki of 46 µM. On NTF2 domain of G3BP2, this compound yielded an IC50 of 53 µM and a Kd of 46 µM.

Consider `CC(=O)N[C@@H](CC(N)=O)C(=O)N[C@@H](CC(C)C)C(=O)N[C@@H](CCC(N)=O)C(=O)N[C@@H](Cc1ccccc1)C(=O)NCC(=O)N[C@@H](C)C(=O)N[C@@H](CC(C)C)C(=O)N[C@@H](CCC(N)=O)C(=O)N[C@@H](Cc1ccccc1)C(=O)NCC(=O)N[C@@H](CO)C(=O)N[C@@H](CCC(=O)O)C(=O)N1CCC[C@H]1C(=O)N[C@H](C(=O)N[C@@H](Cc1ccc(O)cc1)C(=O)O)C(C)C` [UBAP2L 515-528 Human] (Ac-NLQFGALQFGSEPVY-OH), for which the Ki at NTF2 domain of G3BP1 came out at 34 µM. On NTF2 domain of G3BP2, this compound showed a Kd of 34 µM.

For the compound “{FITC}-DYSQPSTSSSIIY [MDM2 393-414 Human]”, the “Ki displacement/Kd direct binding” value in the experiment with USP7 [7] came out at 0.49 µM.
